# Source: publication PMC12339163, “Combining Plant Bioactives With Antibiotics for Enhanced Antibiofilm Activity Against Uropathogenic Staphylococcus spp. and Cytotoxicity Evaluation” (Advances in Pharmacological and Pharmaceutical Sciences, 2025)
# Values joined by “and” are separate entries in the source; they are usually repeats but may differ in a detail not shown here. Equal entries are not always repeated. Where two headings read alike, the source gives them in different places.
# How the values were obtained:
# S. epidermidis = experiment: MIC and MBC, broth microdilution; type: cell-based, Staphylococcus epidermidis; settings: geometric mean, S. epidermidis (n = 3)
# Description: Seven clinical isolates of Staphylococcus spp. including 2 S. aureus, 3 S. saprophyticus, and 2 S. epidermidis were used. They were isolated from urine samples in our previous study. Two reference strains (S. aureus ATCC1026 and S. epidermidis ATCC35984) obtained from the American Type Culture Collection were also included. They were kept in the mixture of glycerol and Mueller Hinton Broth (MHB) (1:1) at −20°C, and the activation was achieved using the streak technique on Mueller Hinton agar (MHA) medium.
# The MICs of ATBs and NPs were determined by the broth microdilution method as previously described. NPs and ATBs were, respectively, prepared at 4096 µg/mL and 512 µg/mL and serially diluted twofold with MHB in a 96-well microplate at a volume of 100 µL. Then, the wells were filled with 100 µL of inoculum (1.5 × 10^6 CFU/mL) to give final concentrations ranging from 1024 µg/mL to 0.5 µg/mL and 128 µg/mL to 0.062 µg/mL of NPs and ATBs, respectively. The microplates were incubated for 24 h at 37°C. Wells containing only bacterial inoculum were used as the negative control. After incubation, a volume of 40 µL of INT solution (0.2 mg/mL) was added to each well, and the microplate was incubated at 37°C for 30 min. Viable bacteria cells change the yellow dye of INT to a pink color. The MIC was considered as the lowest concentration of the sample at which there was no change in the coloration of the medium, corresponding to the complete inhibition of microbial growth.
# All tests were performed in triplicate.
# S. aureus biofilm = experiment: Biofilm inhibition assay (MBIC, MTT); type: cell-based, Staphylococcus aureus; settings: geometric mean, S. aureus (n = 3); for minimal effective concentration: Staphylococcus aureus, 24 h
# Description: The biofilm formation inhibitory activity of NPs and ATBs was carried out according to the method previously described. A total of 100 µL of bacterial inoculum (1.5 × 10^6 CFU/mL) was used, and 100 µL of each sample was added to the microplate to achieve final concentrations ranging from 0.25 µg/mL to 128 µg/mL for ATBs and from 8 µg/mL to 1024 µg/mL for NPs. Then, the microplate was incubated at 37°C for 24 h. After incubation, the plates were gently emptied and washed three times with a phosphate buffer solution at pH 7.2. Then, the MTT solution (0.5 mg/mL) prepared in PBS was introduced into each well, and the microplate was further incubated at 37°C for 24 h. Untreated wells containing bacterial suspension and MHB supplemented with 1% glucose were considered positive controls, and wells containing only MHB+1% glucose without bacteria were used as blanks. After incubation, the MTT solution was aspirated, then 150 µL of DMSO was introduced to dissolve the formazan crystal formed by viable bacteria, and the optical density (OD) was measured at 570 nm using a microplate reader (VERSA-max). The percentage of biofilm inhibition was calculated using the formula below, and the minimal biofilm inhibitory concentration (MBIC) was recorded as the lowest concentration of NPs or ATBs that inhibited 100% of biofilm:(1) % biofilm inhibition=ODcontrol−ODblank−ODtest−ODblank/ODcontrol−ODblank×100.
# S. epidermidis biofilm = experiment: Biofilm eradication assay (MBEC, MTT); type: cell-based, Staphylococcus epidermidis; settings: geometric mean, S. epidermidis (n = 3); for minimal effective concentration: Staphylococcus epidermidis, 24 h
# Description: The determination of the biofilm eradication potential of NPs and ATBs was performed as previously described. Briefly, 100 µL of bacterial inoculum (1.5 × 10^6 CFU/mL) and 100 µL of MHB + 1% glucose were introduced into the microplate, incubated at 37°C for 24 h, and the microplate was gently emptied and washed three times with PBS. Then, 200 µL of ATBs or NPs at respective concentrations ranging from 8 to 1024 µg/mL and from 16 to 2048 µg/mL were incubated at 37°C for 24 h. Once incubation was completed, the microplate was processed as described above, and the percentage of biofilm eradication was calculated using the formula below. The minimal biofilm eradicating concentration (MBEC) was recorded as the lowest concentration of the test sample that reduces 100% of biofilm:(2) % biofilm eradication=ODcontrol−ODblank−ODtest−ODblank/ODcontrol−ODblank×100.
# [1] = system: planktonic cells of Staphylococcus aureus; experiment: Checkerboard combination assay, planktonic cells; type: cell-based; settings: S. aureus, mean; for MIC: Staphylococcus aureus
# Description: (§1) The checkerboard assay, as previously described, was used for the determination of the fractional inhibitory concentration index (FICI). Briefly, 50 µL of MHB was distributed into each well of a 96-well microplate. ATBs were serially diluted along the abscissa, and NPs were serially diluted along the ordinate. Then, 100 µL of bacterial inoculum (1.5 × 10^6 CFU/mL) was added to each well and incubated at 37°C for 24 h. The final concentration ranged from 0.125 to 128 µg/mL for ATBs and 4–512 µg/mL for NPs. After incubation, a volume of 40 µL of INT solution (0.2 mg/mL) was added to each well, and the microplate was incubated at 37°C for 30 min. The wells containing bacterial inoculum and MHB were used as a positive control, while wells containing only MHB + 1% glucose were used as a negative control and used as a blank. Viable bacteria cells change the yellow dye of INT to a pink color. The MICs were considered to be the lowest NP concentrations that prevented the color change medium. Subsequently, the FICI was calculated according to the formula FICI = (MIC of the ATBs in combination/MIC of the ATBs alone) + (MIC of a natural substance in combination/MIC of the natural substance alone). FICI values were interpreted as follows: synergy when FICI ≤ 0.5; additive when 0.5 < FICI ≤ 1; indifference when 1 < FICI ≤ 4; and antagonism when FICI > 4.
# [2] = system: planktonic cells of Staphylococcus saprophyticus; experiment: Checkerboard combination assay, planktonic cells; type: cell-based; settings: S. saprophyticus, mean; for MIC: Staphylococcus saprophyticus
# Description: as §1
# [3] = system: Staphylococcus aureus biofilm; experiment: Checkerboard combination assay, biofilm eradication; type: cell-based; settings: for MBEC Alone ATB: antibiotic alone
# In short: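 Biofilms preformed for 24 h were washed and exposed to antibiotics (0.0625–128 µg/mL) combined with NPs (4–512 µg/mL) for 24 h at 37°C in checkerboard format. Viability was read by MTT reduction to set MBEC, and FICI was calculated for the combination.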
# [4] = Staphylococcus epidermidis, antibiotics, read-out: MBC
# [5] = Staphylococcus epidermidis, read-out: MIC
# [6] = S. aureus biofilm eradication, mean MBEC
# [7] = Staphylococcus epidermidis, natural products, read-out: MBC
# [8] = S. aureus, biofilm eradication, mean
Structure (SMILES),MIC (S. epidermidis; [5]) [µg/mL],"MIC ([1]; 24 h, read-out: MIC alone, ATB) [µg/mL]","MIC ([1]; read-out: MIC alone, ATB) [µg/mL]","MIC ([2]; 24 h, read-out: MIC alone, ATB) [µg/mL]","MIC ([2]; read-out: MIC alone, ATB) [µg/mL]","MIC ([1]; 24 h, read-out: MIC alone, NPs) [µg/mL]","MIC ([1]; read-out: MIC alone, NPs) [µg/mL]","MIC ([2]; 24 h, read-out: MIC alone, NPs) [µg/mL]","MIC ([2]; read-out: MIC alone, NPs) [µg/mL]",MBC (S. epidermidis; [4]) [µg/mL],minimal effective concentration (S. aureus biofilm) [µg/mL],minimal effective concentration (S. epidermidis biofilm) [µg/mL],"MBEC Alone ATB [3, 6] [µg/mL]",MBC (S. epidermidis; [7]) [µg/mL],also measured
"O=C(O)c1cc(O)c(O)c(O)c1 [Gallic acid, 3,4,5-trihydroxybenzoic acid]",427,,,,,427,427,427,427,,512,267,,> 1020,"MBEC Alone NPs ([3]; S. aureus biofilm eradication, natural product alone, mean MBEC): 298.66 µg/mL"
"C=CC1=C(C(=O)O)N2C(=O)[C@@H](NC(=O)/C(=N\OCC(=O)O)c3csc(N)n3)[C@H]2SC1 [Cefixime, cefixime]",107,213,213,192,192,,,,,> 128,64,42.7,42.66,,
"CC1=CC(=O)c2c(O)cccc2C1=O [Plumbagin, plumbagin]",90.7,,,,,4.66,4.66,8.66,8.33,,10.7,10.7,,> 1020,
"NC[C@H]1O[C@H](O[C@H]2[C@H](O)[C@@H](O[C@H]3O[C@H](CO)[C@@H](O)[C@H](N)[C@H]3O)[C@H](N)C[C@@H]2N)[C@H](O)[C@@H](O)[C@@H]1O [Kanamycin, kanamycin]",,,,,,,,,,,,,14.66,,"MBC (S. epidermidis; antibiotics): 12 µg/mL; MIC (S. epidermidis): 7.33 µg/mL; MBIC (S. aureus biofilm): 1.08 µg/mL; MBEC (S. epidermidis biofilm): 13.33 µg/mL; MIC alone, ATB [1]: 22.66 µg/mL; MIC alone, ATB [2]: 14 µg/mL"
"CC[C@H]1OC(=O)[C@H](C)[C@@H](O[C@H]2C[C@@](C)(OC)[C@@H](O)[C@H](C)O2)[C@H](C)[C@@H](O[C@@H]2O[C@H](C)C[C@H](N(C)C)[C@H]2O)[C@](C)(O)C[C@@H](C)C(=O)[C@H](C)[C@@H](O)[C@]1(C)O [Erythromycin, erythromycin]",32.7,108,108,4.66,4.66,,,,,> 128,42.8,18.7,44,,
"O=c1c(O)c(-c2ccc(O)c(O)c2)oc2cc(O)cc(O)c12 [Quercetin, quercetin]",512,,,,,427,341,427,427,,512,299,,> 1020,"MIC alone, NPs ([2]; listed as Que): 341.33 µg/mL"

# More lines, main results first:
MIC (S. epidermidis; [5]) [µg/mL],"MIC ([1]; 24 h, read-out: MIC alone, ATB) [µg/mL]","MIC ([1]; read-out: MIC alone, ATB) [µg/mL]","MIC ([2]; 24 h, read-out: MIC alone, ATB) [µg/mL]","MIC ([2]; read-out: MIC alone, ATB) [µg/mL]","MIC ([1]; 24 h, read-out: MIC alone, NPs) [µg/mL]","MIC ([1]; read-out: MIC alone, NPs) [µg/mL]","MIC ([2]; 24 h, read-out: MIC alone, NPs) [µg/mL]","MIC ([2]; read-out: MIC alone, NPs) [µg/mL]",Structure (SMILES),MBC (S. epidermidis; [4]) [µg/mL],minimal effective concentration (S. aureus biofilm) [µg/mL],minimal effective concentration (S. epidermidis biofilm) [µg/mL],"MBEC Alone ATB [3, 6] [µg/mL]",MBC (S. epidermidis; [7]) [µg/mL],also measured
26.8,86.7,86.7,22,22,,,,,"CC1(C)S[C@@H]2[C@H](NC(=O)[C@H](N)c3ccc(O)cc3)C(=O)N2[C@H]1C(=O)O [Amoxicillin, amoxicillin]",> 128,1.5,16,37.33,,
384,,,,,235,235,149,149,"COc1cc(/C=C/C(=O)CC(=O)/C=C/c2ccc(O)c(OC)c2)ccc1O [Curcumin, curcumin]",,107,107,,> 1020,"MIC alone, NPs ([2]; listed as Cur): 213.33 µg/mL; MBEC Alone NPs ([3]; S. aureus biofilm eradication, natural product alone, mean MBEC, listed as Cur): 128 µg/mL and 149.33 µg/mL and 170.66 µg/mL and 106.66 µg/mL; MBEC Alone NPs [3, 8]: 277.33 µg/mL"
213,,,,,139,139,213,213,"COc1ccc2cc3[n+](cc2c1OC)CCc1cc2c(cc1-3)OCO2 [Berberine, berberine]",,171,171,,> 1020,"MIC alone, NPs ([2]; listed as Ber): 298.66 µg/mL; MBEC Alone NPs [3, 8]: 149.33 µg/mL"
341,,,,,299,299,341,341,"Cc1ccc(C(C)C)c(O)c1 [Thymol, thymol]",,341,107,,> 1020,
